Experimental data as given in patent US20100189695A1, “IRAK-1 AS REGULATOR OF DISEASES AND DISORDERS” (priority 2008, published 2010).
No end group written: not given here.

What was measured:
Tau = Tau phosphorylation (PHF-Tau) after BLP (Pam3CSK4) in bone marrow derived macrophages, Western blot; assay type: cell-based, mouse
Procedure: Because Tau phosphorylation is increased in aged human brains and contributes to the pathogenesis of various neurological diseases, such as Alzheimer's and Parkinson's diseases, studies were performed to ask whether the increased levels of full-length IRAK-1 can contribute to Tau phosphorylation. In order to answer this question, a transgenic mouse model known in the art was used. According to this study, either wild type or IRAK-1 deficient bone marrow derived macrophages were treated with BLP (Pam3CSK4) for various times, as indicated in FIGS. 4 and 5. The levels of phosphorylated Tau (PHF-Tau) were detected through Western Blot using anti-phosphorylated Tau antibody.

Rac1 = Rac1 activity by PBD pull down assay after LPS stimulation; assay type: cell-based, mouse; settings: LPS 100 ng/ml, 5 min
Procedure: (§1) To determine if IRAK-1 is required for LPS-induced activation of Rac1, either wild type or IRAK-1 deficient macrophages were treated with LPS (100 ng/ml).
Rac1 activity was determined using the PBD pull down assay following LPS stimulation (100 ng/ml) for 5 min in WT and IRAK1^−/− BMDM cells followed by immunoblotting with an anti-Rac1 antibody. […] The bar graphs are densitometric analyses of the active Rac1 specific bands from three independent experiments.

C/EBPδ = experiment: LPS-induced C/EBPδ expression, Western blot in macrophages; assay type: cell-based; settings: LPS two hours
Procedure: To determine if IRAK-1 is involved in LPS-induced C/EBPδ expression, either wild type or IRAK-1 deficient macrophages were treated with LPS for two hours. […] Either β-actin or lamin-B proteins were used as controls.

RARα = RARα levels in BMDMs after LPS, Western blot and real time RT-PCR; assay type: cell-based, mouse; settings: for nuclear RARα protein level: 100 ng/ml LPS
Procedure: To determine if IRAK-1 is involved in the nuclear translocation of RARα, the levels of RARα were determined in wild type and IRAK-1 deficient macrophages in the presence and absence of LPS (FIG. 9). […] When experiments are performed in a IRAK-1 deficient background, RARα is not suppressed (lanes 5-8). As expected, when a wild type background is used, IRAK-1 suppression can be seen (lanes 1 and 2).
WT and IRAK-1^−/−. BMDMs were treated with 100 ng/ml LPS for 2 h followed by nuclear protein extraction. The samples were analyzed by immunoblotting using the indicated antibodies. LaminB was used as the loading control. Panel B: the BMDMs derived from WT and IRAK-1^−/− mice were treated with LPS for 2 h followed by RNA extraction. The resulting cDNAs were used to detect RARα transcript levels by real time RT-PCR and standardized against GAPDH levels. Panel C: WT BMDMs were treated with 100 ng/ml LPS for 2 h followed by whole cell protein extraction. The samples were resolved by SDS-PAGE followed by immunoblotting with anti-RARα antibodies. Panel D: BMDM cells derived from WT mice were either untreated or treated with Leptomycin B (LepB) alone or in the presence of LPS. After 2 h incubation, nuclear lysates were prepared and subjected to SDS-PAGE followed by Western blot analysis with RARα specific antibodies. The blots were also probed with LaminB-specific antibodies as a loading control. ns=non-specific.

NOX-1 = NOX-1 expression after LPS in BMDM cells; assay type: cell-based, mouse
Procedure: To determine if IRAK-1 was involved in the regulation of inflammatory mediator NOX-1, the levels of NOX-1 were determined in wild type and IRAK-1 deficient macrophages in the presence and absence of LPS (FIG. 16).
Panel A: Effect of LPS on NOX-1 expression in WT and IRAK1^−/− BMDM cells. The cells were stimulated with LPS (100 ng/ml) for 2 h. After stimulation, total RNA was prepared using Trizol reagent followed by reverse transcription and the mRNA levels of NOX-1 were analyzed using real-time RT-PCR. Each data point represents the mean+/−standard deviation of at least three independent experiments. *P<0.05, compared with control. Panel B: The protein levels of NOX-1 were analyzed after LPS stimulation in WT and IRAK1^−/− BMDM cells by Western blot using an anti-NOX-1 antibody. The same blots were probed with β-actin as the loading control. Panel C: Chromatin immunoprecipitation analyses were performed to determine LPS-inducible recruitment of C/EBPδ to the promoter region of NOX-1. In contrast, LPS cannot induce C/EBPδ binding to the promoter region of NOX-1 in IRAK-1 deficient macrophages.

PGC1α = PGC1α protein after LPS, Western blot; assay type: cell-based; settings: LPS vs Control
Procedure: The ability of IRAK-1 to regulate the transcription factor PGC1α was determined in this set of experiments. PGC1α was detected by Western blot analysis in either wild type or IRAK-1 deficient cells in the presence or absence of LPS (FIG. 15).

BMDM cells = experiment: Intracellular ROS by DCFDA staining after LPS stimulation; assay type: cell-based, mouse; settings: wild type macrophages, LPS 100 ng/ml, 15 minutes or 16 hours
Procedure: as §1
Intracellular ROS levels were measured by DCFDA staining using fluorescence microscope after LPS (100 ng/ml) stimulation in WT and IRAK1^−/− BMDM cells for 15 min.

LXRα = LXRα protein after LPS, Western blot; assay type: cell-based
From the text: The transcriptional factor LXRα was also thought to be a potential target of IRAK-1 suppression. FIG. 14 illustrates Western blot analysis of the LXRα protein in the presence and absence of IRAK-1. Suppression of LXRα can be seen in the wild type cells (lanes 1 and 2).

MCP-1 = MCP-1 message and protein after LPS in macrophages, real-time PCR and ELISA; assay type: cell-based; settings: wild-type cells, LPS stimulation
Procedure: To investigate the possible role of IRAK-1 in control of MCP-1 expression, experiments were performed to assess the level of MCP-1 produced via LPS stimulation. It was postulated that IRAK-1 regulates the expression of MCP-1 through interaction of IRAK-1 with C/EBPδ. To assess this possible interaction, MCP-1 mRNA levels were determined in both wild-type cells and IRAK^−/− cells in the presence and absence of LPS. The results are depicted graphically in FIG. 17.
As shown in the figure, the levels of MCP-1 message (left panel) and protein (right panel) in wild type and IRAK-1 deficient macrophages following LPS stimulation was measured by real-time PCR analyses (left panel) and ELISA (right panel). […] The data fully support a role for IRAK-1 in control of expression of MCP-1 transcription through control of C/EBPδ.

PPARα = PPARα protein after LPS, Western blot; assay type: cell-based; settings: IRAK-1 deficient cells, LPS vs Control
From the text: It was of interest to determine if the transcription factor PPARα is also regulated by IRAK-1.

ABCA1 = ABCA1 induction by ATRA in BMDMs, real time RT-PCR; assay type: cell-based, mouse; settings: IRAK1−/− vs WT BMDMs, 50 nM ATRA, 6 h
Procedure: WT and IRAK1^−/− BMDM cells were either untreated or treated with ATRA (50 nM) followed by Western blot analysis of cell extracts using ABCA1 specific antibodies. Antibodies against β-actin were used as the internal loading control. Panel B: the band intensities were quantitated using the Fujifilm Multi Gauge software and the fold induction is depicted after normalization against β-actin levels. Panel C: IRAK-1 expression was knocked-down using IRAK-1 specific siRNA (IRAK1). Wild type macrophages treated with either control siRNA or IRAK-1 specific siRNA were stimulated with 50 nM ATRA for 6 hrs. The levels of ABCA1 protein were determined by Western blot using anti-ABCA1 antibody. The levels of beta-actin were probed and served as equal loading controls. The levels of IRAK-1 were probed to make efficient knock-down with the IRAK-1 specific siRNA treatment. […] The cells were […] either untreated or treated with 50 nM ATRA for 6 h and the expression of ABCA1 and ABCG1 transcripts were measured by real time RT-PCR assays and standardized against GAPDH levels.

Molecule: Triacylated Cys-Ser-Lys-Lys-Lys-Lys (CSKKKK; not fully specified (residue 1, N-terminus); printed as Triacylated Cys-Ser-Lys-Lys-Lys-Lys) [Pam3CSK4]
- Tau phosphorylation (Tau; IRAK-1 deficient bone marrow derived macrophages): Tau phosphorylation is ablated
- Tau phosphorylation (Tau; wild type bone marrow derived macrophages): led to increased Tau phosphorylation

Molecule: lipopolysaccharide [LPS]
- activation of Rac1 (Rac1; IRAK-1 deficient macrophages): No induction was seen
- relative Rac1 activity (Rac1; wild type macrophages): significantly higher
- C/EBPδ expression (C/EBPδ; IRAK-1 deficient macrophages): no induction
- C/EBPδ expression (C/EBPδ; wild type macrophages): induction
- nuclear RARα protein level (RARα; IRAK-1 deficient BMDMs, 2 h): no significant suppression
- nuclear RARα protein level (RARα; wild type BMDMs, 2 h): suppression of RARα protein
- RARα relative transcript levels (RARα; wild type and IRAK-1 deficient BMDMs, LPS 2 h, standardized against GAPDH): approximately equal
- NOX-1 protein (NOX-1; IRAK-1 deficient cells): Induction was seen to a lesser extent
- NOX-1 protein (NOX-1; wild type macrophage cells): LPS-induction of NOX-1
- PGC1α protein (PGC1α; IRAK-1 deficient cells): did not show the LPS-induced suppression
- PGC1α protein (PGC1α; wild type cells): much less of the PGC1α protein
- reactive oxygen species levels (BMDM cells): induced significantly higher levels of reactive oxygen species
- amount of LXRα in the presence or absence of LPS (LXRα; IRAK-1 deficient cells): approximately the same
- amount of LXRα without LPS induction relative to LPS-induced cells (LXRα; wild type cells): four times
- MCP-1 transcription and protein expression (MCP-1): significant increase in induction of MCP-1 transcription and protein expression
- PPARα protein (PPARα): PPARα was seen in both the Control and LPS samples

Molecule: CCC(=C/[C@H](C)C/C=C/C(C)=C/[C@@H](C)C(=O)[C@@H](C)[C@H](O)[C@@H](C)C/C(C)=C/C(=O)O)/C=C/[C@@H]1OC(=O)C=C[C@@H]1C [LepB, Leptomycin B]
- LPS-induced suppression of nuclear RARα in the presence of LepB (RARα; wild type BMDM, LepB with LPS, 2 h): RARα suppression by IRAK-1 is not seen

Molecule: CC1=C(/C=C/C(C)=C/C=C/C(C)=C/C(=O)O)C(C)(C)CCC1 [ATRA, all trans retinoic acid]
- ABCA1 mRNA induction (ABCA1): higher induction of ABCA1 mRNA
